Test results: the supplement of paper PMC10307832

Tests used:
Assay in all cases: relative viability (nuclei count vs DMSO), 5 days (fraction); higher = more cells survive
[1] = compound: C[C@]1(c2nc3c(C(N)=O)cccc3[nH]2)CCCN1 [Veliparib] + Nc1ncn([C@H]2C[C@H](O)[C@@H](CO)O2)c(=O)n1 [Decitabine] (partner 2 µM)
Method in brief: (§1)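 Lung cancer cell lines were seeded in 1536-well plates and dosed by pin tool the next day, with either a single drug or a fixed anchor-drug dose combined with five library-drug doses (not always all listed) spaced in √10 steps. Five days later, one step fixed the cells and stained their nuclei (final 0.05% Triton X-100, 1% formaldehyde, 1 ug/ml Hoechst), and nuclei were counted on 4× images. Relative viability is the nuclei count in treated wells divided by the count in vehicle wells, and each value is the median of duplicate plates.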

[2] = compound: COC1=CC=C(C=C1)CN2C=CC3=C2C=C(C=C3)C(=O)NO + Nc1nc2[nH]cc(CCc3ccc(C(=O)N[C@@H](CCC(=O)O)C(=O)O)cc3)c2c(=O)[nH]1 [Pemetrexed] (partner 0.2 µM)
Method in brief: as §1

[3] = compound: C[C@]1(c2nc3c(C(N)=O)cccc3[nH]2)CCCN1 [Veliparib] + COc1cccc2cc(-c3nc([C@H]4CC[C@H](C(=O)O)CC4)n4ncnc(N)c34)[nH]c12 [OSI-027] (partner 0.5 µM)
Method in brief: as §1

[4] = compound: C[C@]1(c2nc3c(C(N)=O)cccc3[nH]2)CCCN1 [Veliparib] + O=C(c1cc(Cc2n[nH]c(=O)c3ccccc23)ccc1F)N1CCN(C(=O)C2CC2)CC1 [Olaparib] (partner 8 µM)
Method in brief: as §1

| Cell Line | relative viability ([1]; first compound 0.02 µM) | relative viability ([1]; first compound 0.06325 µM) | relative viability ([1]; first compound 0.2 µM) | relative viability ([1]; first compound 0.6325 µM) | relative viability ([1]; first compound 2 µM) | relative viability ([2]; first compound 0.08 µM) | relative viability ([2]; first compound 0.253 µM) | relative viability ([2]; first compound 0.8 µM) | relative viability ([2]; first compound 2.53 µM) | relative viability ([2]; first compound 8 µM) | relative viability ([3]; first compound 0.06325 µM) | relative viability ([3]; first compound 0.2 µM) | relative viability ([3]; first compound 0.6325 µM) | relative viability ([3]; first compound 2 µM) | relative viability ([4]; first compound 0.02 µM) | relative viability ([4]; first compound 0.06325 µM) | relative viability ([4]; first compound 0.2 µM) | relative viability ([4]; first compound 0.6325 µM) | relative viability ([4]; first compound 2 µM) | relative viability ([3]; first compound 0.02 µM) |
| --- | --- | --- | --- | --- | --- | --- | --- | --- | --- | --- | --- | --- | --- | --- | --- | --- | --- | --- | --- | --- |
| LC-2-ad | 0.775 | 0.801 | 0.706 | 0.673 | 0.763 | 0.283 | 0.292 | 0.307 | 0.303 | 0.261 | 0.758 | 0.781 | 0.792 | 0.87 | 0.744 | 0.68 | 0.662 | 0.756 | 0.681 |  |
| LOU-NH91 | 0.847 | 0.785 | 0.792 | 0.782 | 0.837 |  | 0.417 | 0.346 | 0.372 | 0.391 | 0.669 | 0.688 | 0.726 | 0.74 | 0.882 | 0.901 | 0.978 | 0.876 | 0.95 | 0.716 |
| NCI-H1623 |  |  |  |  |  |  |  |  |  |  | 0.362 | 0.425 | 0.42 | 0.431 |  |  |  |  |  | 0.384 |
| NCI-H727 | 0.865 | 0.758 | 0.856 | 0.706 | 0.865 |  |  |  |  |  | 0.439 | 0.648 | 0.494 | 0.537 | 0.601 | 0.549 | 0.739 | 0.665 | 0.748 | 0.527 |
| NCI-H2347 | 0.625 | 0.556 | 0.616 | 0.582 | 0.587 | 0.399 | 0.44 | 0.405 | 0.473 | 0.453 | 0.377 | 0.473 | 0.206 | 0.347 | 0.587 | 0.549 | 0.597 | 0.586 | 0.576 | 0.416 |
| NCI-H1993 |  | 0.526 | 0.614 | 0.541 | 0.567 | 0.542 | 0.529 | 0.648 | 0.603 | 0.549 | 0.531 | 0.562 | 0.585 | 0.51 |  | 1.05 | 1.2 | 1.03 | 1.13 | 0.592 |
| HCC-827 | 0.298 | 0.303 | 0.292 | 0.241 | 0.3 | 0.228 | 0.27 | 0.262 | 0.266 | 0.253 | 0.843 | 0.722 | 0.552 | 0.786 | 0.629 | 0.634 | 0.561 | 0.585 | 0.615 | 0.763 |
| NCI-H1975 | 0.392 | 0.447 | 0.362 | 0.307 | 0.328 | 0.288 | 0.294 | 0.299 | 0.291 | 0.286 | 0.674 | 0.676 | 0.677 | 0.68 | 0.77 | 0.745 | 0.788 | 0.748 | 0.776 | 0.715 |
| NCI-H1793 | 0.511 | 0.47 | 0.445 | 0.429 | 0.424 |  | 0.943 | 0.997 | 1.08 | 0.698 | 0.265 | 0.31 | 0.286 | 0.262 | 0.954 | 0.976 | 0.827 | 0.851 | 1.01 | 0.317 |
| NCI-H1651 | 0.549 | 0.43 | 0.348 | 0.358 | 0.32 | 0.561 | 0.523 | 0.587 | 0.512 | 0.56 | 0.626 | 0.619 | 0.659 | 0.697 | 0.172 | 0.197 | 0.183 | 0.173 | 0.183 | 0.699 |
| NCI-H1755 | 0.675 | 0.709 | 0.629 | 0.595 | 0.707 | 0.421 | 0.379 | 0.443 | 0.437 | 0.512 | 0.713 | 0.683 | 0.586 | 0.645 | 0.821 | 0.798 | 0.877 | 0.881 | 0.915 | 0.767 |
| LCLC-103H | 0.809 | 0.662 | 0.667 | 0.705 | 0.714 | 0.475 | 0.452 | 0.482 | 0.414 | 0.425 | 0.434 | 0.462 | 0.466 | 0.5 | 0.753 | 0.74 | 0.826 | 0.75 | 0.745 | 0.464 |
| NCI-H1915 | 0.23 | 0.243 | 0.267 | 0.242 | 0.266 | 0.441 | 0.527 | 0.49 | 0.485 | 0.447 | 0.616 | 0.545 | 0.567 | 0.574 | 0.252 | 0.238 | 0.243 | 0.251 | 0.254 | 0.587 |
| HOP-62 | 0.221 | 0.198 | 0.164 | 0.197 | 0.251 | 0.278 | 0.454 | 0.31 | 0.244 | 0.35 | 0.734 | 0.798 | 0.792 | 0.761 |  | 0.347 | 0.364 | 0.342 | 0.383 | 0.756 |
| HARA | 0.565 |  | 0.47 | 0.499 | 0.311 |  | 0.263 | 0.277 | 0.258 | 0.203 | 0.495 | 0.465 | 0.433 | 0.485 | 0.931 |  | 0.857 | 0.858 | 0.722 | 0.508 |
| NCI-H520 | 0.427 | 0.404 | 0.414 | 0.375 | 0.35 | 0.525 | 0.743 | 0.641 | 0.661 | 0.648 | 0.309 | 0.276 | 0.231 | 0.234 | 0.352 | 0.329 | 0.332 | 0.366 | 0.358 | 0.224 |
| NCI-H1395 | 0.704 | 0.626 | 0.686 | 0.606 | 0.652 |  | 0.788 | 0.913 | 0.91 | 0.726 | 0.576 | 0.548 | 0.579 | 0.523 | 0.435 | 0.395 | 0.448 | 0.415 | 0.471 | 0.494 |
